Measurements reported in patent US12404332B2, “Methods for diagnosing and treating cancers” (Research Development Foundation, priority 2020, dated 2025).
Entries after “also recorded” stand apart in the source; their conditions may differ.

How the values were obtained:
PD-L1 [1] = assay: Tumor cell PD-L1 depletion by drugs (flow cytometry, immunoblot); type: cell-based, human and mouse; settings: summary statement
Protocol: High throughput Screening: B16 PD-L1 RFP cells were treated with 2.5 and 10 μM compounds from the Prestwick and LOPAC Libraries for 48 hours using the Agilent Bravo liquid pipetting platform. Then, cells were washed with PBS, and fixed with 4% paraformaldehyde (Electron Microscopy Sciences, Hatsfield, PA, Cat 15714S) and labeled with 2 μg/ml DAPI, (Molecular Probes, Cat D1306) and 1 μg/ml Cell Mask-Blue (Invitrogen, Cat. H32720). Plates were then imaged using the Operetta High Content Imaging System, Perkin Elmer, Waltham (DAPI and Cell Mask Blue, Ex 360-400, Em 410-480), and the RFP channels (Ex 520-550, Em 560-630) channels. Agents effecting ≥2-fold PD-L1 reduction in the RFP reporter without loss of ≥20% cell viability were candidate PD-L1 depletion agents.
Flow cytometry: Mice were sacrificed by cervical dislocation after induction of deep isoflurane anesthesia. ID8agg tumors were collected and cells were stained as described (Derup et al., 2020) using LSR II hardware and analyzed by FACS Diva (BD Bioscience) or Flow Jo software (Flow Jo, LLC). Anti-mouse (clone 10F.9G2) and human (clone 29E.2A3) PD-L1 [both PE/Cy7, Cat #124314 (mouse) 329718 (human)] were matched with isotype control. Apoptosis assessment used Annexin V and propidium iodide (Thermo Scientific) per manufacturer instruction.
Western blotting and immunoprecipitation: To prepare whole cell lysates, cells were harvested and lysed in RIPA (radioimmunoprecipitation assay) buffer plus 1 mM phenylmethylsulphonyl fluoride and Halt protease/phosphatase inhibitor cocktail (Thermo Scientific) at 4° C. Protein concentrations were measured by BCA Protein Assay Kit (Thermo Scientific). Protein was run on precast 4-15% sodium dodecyl sulfate polyacrylamide gels (Bio-Rad), transferred to polyvinylidene fluoride membranes (GE Water and Process Technologies), and then blocked in 5% non-fat milk for 1 hour at room temperature. The membranes were then incubated with 1:1000 diluted primary antibodies against indicated proteins (Cell Signaling). Specific antibody binding was detected by chemiluminescence using Western Lightening Plus regent (Perkin Elmer). Cells for (co) immunoprecipitation experiments were seeded in 15-cm dishes and cultured as described, using 6 million cells per immunoprecipitation reaction. For protein ubiquitination, cells were lysed in denaturing buffer (50 mM Tris-HCl, 0.5 mM EDTA and 1% SDS) followed by heating at 95° C. for 10 minutes and then quenched with 9 volumes of quenching buffer (0.5% Triton X-100, 20 mM Tris-HCl (pH 8.0), 137 mM NaCl, 10% glycerol, 2 mM EDTA). Protease inhibitor cocktail (Roche) was added fresh to all buffers. Cell lysates were incubated on a rotator for 30 minutes at 4° C., and then centrifuged at 20,000 g for 15 minutes at 4° C. Supernatants were subsequently incubated with anti-PD-L1 antibody overnight and processed using Dynabeads Protein G for Immunoprecipitation (Thermo Fisher Scientific). The final eluate was processed and Western blotting was performed.

RT4 cells = assay: Chk1 inhibitor synthetic lethality with beta-lactam antibiotics, RT4 cells; type: cell-based, human
Protocol: (§1) Additional experiments were performed, as follows. MB49 were plated at 2,000 cells/well in 96 well flat bottom plates and treated with PD-L1 depleting drugs, olaparib (2.5 μM), and combination for 96 hours. RT4 were plated at 2,000 cells/well in 96 well flat bottom plates and treated with cefepime, rabusertib (1 μM), praxasertib, or combination for 96 hours. ID8agg, 4T1, and B16 cells were plated on fibronectin at 500 cells/well and treated with cefepime, rabusertib, or combination for 96 hours. Normalized treatment combination to DDR inhibitor alone, and PD-L1 depleting drug to vehicle alone (DMSO) were evaluated.

ID8agg cells = assay: Chk1 inhibitor synthetic lethality with ceftazidime, ID8agg cells; type: cell-based, mouse
Protocol: as §1

[2] = tested on: RT4 human bladder cancer cells; assay: In vitro viability (MTT) of CTRL versus PD-L1^KO RT4 cells; type: cell-based
Protocol: (§2) Cells (1×10^3) were plated in 96 well plastic culture plates in respective medium and treated for 5 days with DDRi or 3 days with gemcitabine at indicated concentrations. Drug concentrations were carefully optimized in preliminary work not shown. Cell viability was by MTT (3-(4,5-dimethylthiazol-2-yl)-2,5-diphenyl tetrazolium bromide) at 5 mg/ml. Absorbance was measured at 540 nm. Results are presented as a mean+/−SEM of ≥6 replicates. Total cells and viability were confirmed using a Vi-Cell-XR (Beckman Coulter).

[3] = tested on: ID8agg murine ovarian cancer cells; assay: In vitro viability (MTT) of CTRL versus PD-L1^KO ID8agg cells; type: cell-based, mouse; settings: monotherapy, listed as Chk1i
Protocol: as §2

[4] = tested on: 4T1 murine breast cancer cells; assay: In vitro viability (MTT) of CTRL versus PD-L1^lo 4T1 cells; type: cell-based, mouse; settings: listed as Chk1i
Protocol: as §2

[5] = tested on: B16 murine melanoma cells; assay: In vitro viability (MTT) of CTRL versus PD-L1^KO B16 cells; type: cell-based, mouse
Protocol: as §2

[6] = tested on: human MDA-MB-231 triple negative breast cancer cells; assay: In vitro sensitivity of PD-L1^lo versus CTRL MDA-MB-231 cells; type: cell-based
[7] = tested on: CTRL or PD-L1^lo 4T1 tumors; assay: 4T1 tumor growth in NSG mice; type: in vivo, mouse; settings: PD-L1^lo but not control 4T1 tumors, NSG females
Protocol: NSG mice were challenged with MB49 (0.3×10^6 cells) subcutaneously on opposite flanks. Olaparib (daily 25 mg/kg, 4% DMSO) was injected intraperitoneally on days 3-11. 4T1 (0.5×10^6 cells) were injected into mammary fat pads of NSG mice with Matrigel (1:1, Corning). Rabusertib (LY2602618, 4% DMSO) was administered intraperitoneally on day 3 (10 mg/kg) and days 10 and 17 (1 mg/kg).

[8] = tested on: UV induced TpN^61R derived CD274^+/+ or CD274^−/− melanoma cells; assay: Viability of de novo Nras CD274^+/+ versus CD274^−/− melanoma cells; type: cell-based, mouse; settings: in vitro
Text: (§3) FIGS. 26A-H: De novo PD-L1^KO tumors phenocopy important aspects of genetic PD-L1 depletion in established tumors. FIG. 26A, Melanoma-free survival of melanocyte specific CD274^fl,fl TpN^61R (KO) versus littermate (WT) autochthonous mice under conditions shown. FIG. 26B, Validation of PD-L1 expression by immunoblot (IB) of melanoma cells derived from UV induced (4.5 Kj/m^2) WT (CD274^+/+) or melanocyte specific CD274^KO (CD274^−/−) mice±in vitro interferon (IFN)-γ treatment. Viability curves of CD274^+/+ versus CD274^−/− cells treated with the selective Chk1 inhibitors FIG. 26C, prexasertib […] or FIG. 26D, rabusertib (LY2603618) in vitro at indicated concentrations. FIG. 26E, IB analysis of PD-L1, ATM, Chk2, and γH2AX of vehicle or rabusertib-treated CD274^+/+ and CD274^−/− cell lines. FIGS. 26F-H, Tumor growth curves in WT C57BL/6J mice (n=10 tumors/group) challenged with UV induced TpN^61R derived CD274^+/+ or CD274^−/− melanoma cells and treated with rabusertib (Chk1i, LY2603618) on the indicated treatment schedule. P values, two-way ANOVA.

[9] = tested on: TpN^61R derived CD274^+/+ or CD274^−/− melanoma tumors; assay: Growth of de novo PD-L1 null versus replete melanoma in C57BL/6J mice; type: in vivo, mouse; settings: C57BL/6J wild type mice
Text: as §3

[10] = tested on: CTRL and PD-L1^KO RT4 cells; assay: Viability of RT4 cells treated with Chk1 inhibitor plus atezolizumab; type: cell-based, human; settings: in vitro, absence of immune cells
Protocol: (§4) FIGS. 27A-H: Anti-PD-L1 antibodies mimic genetic PD-L1 depletion to impair tumor cell-intrinsic DDR signals and promote sensitivity to Chk1 inhibition in vitro and in vivo. Cell viability of FIG. 27A, CTRL and FIG. 27B, PD-L1^KORT4 cells treated with LY2603618 (Chk1 inhibitor) as shown plus IgG1 isotype or atezolizumab (atezo, 3 μg/ml) for 72 hours in vitro. Mean+SEM, n=6 replicates, ***, P<0.001, unpaired t-test. FIG. 27C, Immunoblot (IB) analysis of ATM, Chk2, γH2AX and vinculin (VINC) of RT4 cells treated in vitro with isotype, atezolizumab, Chk1i, or their combination. FIG. 27D, Viability of 4T1 cells as in panel A substituting anti-murine PD-L1 and isotype controls. FIG. 27E, IB of 4T1 as in panel FIG. 27C. FIG. 27F, Tumor curves of NSG mice (n=10 tumors/group) challenged with 4T1 tumor cells and treated with Chk1i±αPD-L1. FIG. 27G, Tumor curves and FIG. 27H, tumor weights in WT […] mice challenged and treated as in panel FIG. 27F. P values, two-way ANOVA.

4T1 tumors = 4T1 tumors in mice treated with Chk1i ± αPD-L1; type: in vivo, mouse; settings: wild type mice
Protocol: as §4

PD-L1 [11] = assay: PD-L1 after DNA damaging agents; type: cell-based

Row | Compound | expression of PD-L1 in cancer cells (PD-L1 [1]) | PD-L1 dependence of synthetic lethality (RT4 cells; FIG. 47B) | synthetic lethality with Chk1i (RT4 cells; RT4 cells, Chk1i rabusertib) | synthetic lethality with Chk1i (ID8agg cells) | cytotoxicity in PD-L1^KO versus control RT4 cells [2] | sensitivity of PD-L1^KO versus control RT4 cells to the agent ([2]; monotherapy) | sensitivity of PD-L1^KO versus control ID8agg cells to the agent [3] | sensitivity of PD-L1^lo versus control 4T1 cells to the agent [4] | cytotoxicity against PD-L1^KO versus control B16 cells [5] | sensitivity of PD-L1^lo versus CTRL MDA-MB-231 cells [6] | tumor sensitivity to single agent treatment [7] | synthetic lethality in induced PD-L1^KO tumors [8] | control of in vivo growth, PD-L1 null versus PD-L1 replete tumors [9] | viability of RT4 cells, single agent [10] | 4T1 tumors in vivo (4T1 tumors) | PD-L1 after DNA damaging agent (PD-L1 [11])
1 | CC(C)(O/N=C(\C(=O)N[C@@H]1C(=O)N2C(C(=O)[O-])=C(C[n+]3ccccc3)CS[C@H]12)c1csc(N)n1)C(=O)O [ceftazidime] | decreased expression of PD-L1 | PD-L1 dependent | induce synthetic lethality | induce synthetic lethality |  |  |  |  |  |  |  |  |  |  |  | 
2 | Cc1cnc(NC(=O)Nc2cc(Br)c(C)cc2OC[C@@H]2CNCCO2)cn1 [rabusertib] |  |  |  |  | over 15 fold | striking cytotoxicity | enhanced sensitivity | significantly growth inhibited; also recorded: enhanced sensitivity | striking cytotoxicity | more sensitive | particularly sensitive | exhibited synthetic lethality | controlled in vivo growth significantly better | expected dose-response toxicity | failed to benefit | increased PD-L1
